{"source": "paper PMC6857582", "about": "“Characterization of aminopeptidase encoding gene anp-1 and its association with development in Caenorhabditis elegans” (PeerJ, 2019)", "key": {"[1]": {"biological_target": "T1, rANP-1 (AlaNyl aminopeptidase 1) (Caenorhabditis elegans, UniProt Q22317)", "T1 construct": "gene anp-1", "T1 sequence (Q22317 93-559)": "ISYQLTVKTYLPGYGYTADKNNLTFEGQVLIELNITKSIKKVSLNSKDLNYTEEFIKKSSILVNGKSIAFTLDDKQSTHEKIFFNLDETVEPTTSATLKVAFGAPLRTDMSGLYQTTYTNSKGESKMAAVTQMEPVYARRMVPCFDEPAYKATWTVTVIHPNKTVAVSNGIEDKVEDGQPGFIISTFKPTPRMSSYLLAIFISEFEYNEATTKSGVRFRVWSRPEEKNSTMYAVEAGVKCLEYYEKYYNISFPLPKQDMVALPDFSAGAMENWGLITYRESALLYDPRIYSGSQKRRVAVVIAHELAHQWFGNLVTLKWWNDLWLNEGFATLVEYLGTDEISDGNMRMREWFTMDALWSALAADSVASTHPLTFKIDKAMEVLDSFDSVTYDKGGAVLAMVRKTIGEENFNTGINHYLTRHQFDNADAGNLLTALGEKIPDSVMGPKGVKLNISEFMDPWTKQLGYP", "assay": "L-Leu-pNA hydrolysis, absorbance at […] nm", "format": "biochemical", "conditions": "inhibitor concentration not given; pre-incubation with inhibitor; substrate L-Leu-pNA; refolded fragment"}, "[2]": {"biological_target": "T1, rANP-1 (AlaNyl aminopeptidase 1)", "assay": "p-nitroanilide release, absorbance at […] nm", "format": "biochemical", "conditions": "refolded fragment"}}, "data": [{"smiles": "CC(C)C[C@@H](N)[C@H](O)C(=O)N[C@H](C(=O)N[C@H](C(=O)N[C@@H](CC(=O)O)C(=O)O)C(C)C)C(C)C", "note": "[amastatin]", "values": [{"measurement": "% reduction of activity", "setting": "[1]", "value": "~ 55%"}]}, {"smiles": "CC(C)C[C@H](N)C(=O)Nc1ccc([N+](=O)[O-])cc1", "note": "[L-leucine-p-nitroanilide]", "values": [{"measurement": "p-nitroanilide release, absorbance at 405 nm", "setting": "[2]", "value": "Aminopeptidase activity of rANP-1 protein was measured using L-Leu-pNA as substrate"}]}, {"smiles": "CC(C)C[C@H](NC(=O)[C@@H](O)[C@H](N)Cc1ccccc1)C(=O)O", "note": "[bestatin]", "values": [{"measurement": "% reduction of activity", "setting": "[1]", "value": "~ 46%"}]}]}
